In paper PMC7042063 (Chembiochem : a European journal of chemical biology, 2019) one finds IC50 data, which are given here for two compounds.

The structures appear in SMILES notation. pIC50: −log10 of the molar value.

Common to all, as to assay type: biochemical
Test [1] deals with T1, UCHL3 (Homo sapiens, UniProt P15374).
T1 sequence (P15374 1-230): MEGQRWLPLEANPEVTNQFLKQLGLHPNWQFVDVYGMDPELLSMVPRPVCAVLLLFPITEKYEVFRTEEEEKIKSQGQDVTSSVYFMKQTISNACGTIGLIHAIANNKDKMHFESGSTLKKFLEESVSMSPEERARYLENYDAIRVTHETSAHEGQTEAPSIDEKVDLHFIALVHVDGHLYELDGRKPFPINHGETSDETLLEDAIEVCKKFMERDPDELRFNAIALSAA
Nature of the test: Ub-Rho cleavage assay, purified enzyme.

For test [2], the target named is T2, Ubiquitin C-terminal Hydrolase L1 (UCHL1) (Homo sapiens, UniProt P09936).
T2 sequence (P09936 1-220): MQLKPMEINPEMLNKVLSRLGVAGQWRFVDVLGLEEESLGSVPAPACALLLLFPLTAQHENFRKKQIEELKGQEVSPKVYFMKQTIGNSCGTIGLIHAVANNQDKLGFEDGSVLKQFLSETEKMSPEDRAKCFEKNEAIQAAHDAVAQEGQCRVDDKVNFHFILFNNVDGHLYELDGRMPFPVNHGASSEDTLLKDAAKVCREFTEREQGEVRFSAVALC
Put plainly: inhibition IC50 of UCHL1.

Test [3] has as its target T1, UCHL3. Put plainly: Ub-Rho cleavage assay, purified enzyme, […] min preincubation.

As a reminder, the pIC50 is the negative decadic logarithm of the IC50, by convention in mol/L. High values mean a low IC50, low ones a high IC50. Turning to `C#CCCn1cc(-c2cccc3c2CCN3C(=O)[C@@H]2CCCN2C#N)c(C(F)(F)F)n1` [compound 2, (S)-2-(4-(1-(but-3-yn-1-yl)-3-(trifluoromethyl)-1H-pyrazol-4-yl)indoline-1-carbonyl)pyrrolidine-1-carbonitrile], the pIC50 was 5.26 in test [1] and 5.19 in test [2]. In test [3], `N#CN1CCC[C@H]1C(=O)N1CCc2c(-c3cn[nH]c3C(F)(F)F)cccc21` [compound 1, (S)-2-(4-(5-(trifluoromethyl)-1H-pyrazol-4-yl)indoline-1-carbonyl)pyrrolidine-1-carbonitrile] gave a pIC50 of 5.19.
